In the CheMixHub viscosity set:

Assay: xn = mol fraction of the nth substance listed

CC1COC(=O)O1 (centres undefined) + Cc1ccc(C)cc1
viscosity [mPa·s], 101 kPa
Conditions	298.15 K	308.15 K
x1 = 0.0227	0.6155	0.5443
x1 = 0.0397	0.6246	0.5534
x1 = 0.0573	0.6333	0.5634
x1 = 0.0816	–	0.5779
x1 = 0.098	0.6527	0.5884
x1 = 0.209	0.728	0.6727
x1 = 0.3029	0.8062	0.7639
x1 = 0.3993	0.9317	0.8783
x1 = 0.5028	1.116	1.026
x1 = 0.5978	1.316	1.184
x1 = 0.7068	1.584	1.394
x1 = 0.8012	1.856	1.599
x1 = 0.8996	2.149	1.835

C1CCOC1 + Cc1ccccc1
303.15 K, 101.33 kPa
Conditions	viscosity [mPa·s]
x1 = 0.1014	0.52
x1 = 0.1984	0.518
x1 = 0.3066	0.512
x1 = 0.3662	0.51
x1 = 0.4984	0.499
x1 = 0.5997	0.489
x1 = 0.702	0.479
x1 = 0.7981	0.467
x1 = 0.8997	0.453
